Each structure is given as a SMILES string.

This test addresses recombinant Mcl-1 (residues 172-327) (Homo sapiens (Human), UniProt Q07820). Nature of the test: Fluorescence polarization anisotropy competition assay (FITC-Bak or FITC-Bim BH3 peptide) with Mcl-1. The test is classed as binding. The conditions noted are these: Table 2; Ki bins given in nM; FITC-Bak or FITC-Bim peptide competition; Ki converted from IC50; read-out: Ki for Inhibition of Mcl-1.

Chain of recombinant Mcl-1 (residues 172-327) (Q07820 172-327): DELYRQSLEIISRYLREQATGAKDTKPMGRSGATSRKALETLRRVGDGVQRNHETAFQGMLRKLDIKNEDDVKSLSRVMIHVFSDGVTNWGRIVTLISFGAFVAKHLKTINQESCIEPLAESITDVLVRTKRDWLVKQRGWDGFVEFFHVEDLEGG

As to `Cc1cc(OCCCc2c3n(c4c(-c5c(C)nn(C)c5C)c(Cl)ccc24)CCCN(Cc2cc(C(=O)O)cc(-c4ccc(OCc5ccccc5C(F)(F)F)cc4)c2)C3=O)cc(C)c1Cl` [I-308, 5-((8-chloro-1-(3-(4-chloro-3,5-dimethylphenoxy)propyl)-1-oxo-7-(1,3,5-trimethyl-1H-pyrazol-4-yl)-4,5-dihydro-1H-[1,4]diazepino[1,2-a]indol-2(3H)-yl)methyl)-4′-((2-(trifluoromethyl)benzyl)oxy)-[1,1′-biphenyl]-3-carboxylic acid], the Ki was in the range of 51 to 100 nM. To `Cc1cc(OCCCc2c3n(c4c(-c5c(C)nn(C)c5C)c(Cl)ccc24)CCCN(Cc2ccc(C(=O)NS(=O)(=O)c4ccc(OCc5ccccc5)cc4)cc2)C3=O)cc(C)c1Cl` [I-309, N-((4-(benzyloxy)phenyl)sulfonyl)-4-((8-chloro-11-(3-(4-chloro-3,5-dimethylphenoxy)propyl)-1-oxo-7-(1,3,5-trimethyl-1H-pyrazol-4-yl)-4,5-dihydro-1H-[1,4]diazepino[1,2-a]indol-2(3H)-yl)methyl)benzamide] belongs below 50 nM; to `Cc1cc(OCCCc2c3n(c4c(-c5c(C)nn(C)c5C)c(Cl)ccc24)CCCN(Cc2ccc(C(=O)NS(=O)(=O)c4ccc(OCc5cccnc5)cc4)cc2)C3=O)cc(C)c1Cl` [I-310, 4-((8-chloro-11-(3-(4-chloro-3,5-dimethylphenoxy)propyl)-1-oxo-7-(1,3,5-trimethyl-1H-pyrazol-4-yl)-4,5-dihydro-1H-[1,4]diazepino[1,2-a]indol-2(3H)-yl)methyl)-N-((4-(pyridin-3-ylmethoxy)phenyl)sulfonyl)benzamide], below 50 nM; to `Cc1cc(OCCCc2c3n(c4c(-c5c(C)nn(C)c5C)c(Cl)ccc24)CCCN(Cc2cc(COc4ccccc4C(F)(F)F)cc(C(=O)O)c2)C3=O)cc(C)c1Cl` [I-312, 3-((8-chloro-11-(3-(4-chloro-3,5-dimethylphenoxy)propyl)-1-oxo-7-(1,3,5-trimethyl-1H-pyrazol-4-yl)-4,5-dihydro-1H-[1,4]diazepino[1,2-a]indol-2(3H)-yl)methyl)-5-((2-(trifluoromethyl)phenoxy)methyl)benzoic acid], 51 to 100 nM. Regarding `Cc1cc(OCCCc2c(C(=O)Nc3cc[nH]n3)[nH]c3c(-c4c(C)nn(C)c4C)cccc23)cc(C)c1Cl` [I-313, 3-(3-(4-chloro-3,5-dimethylphenoxy)propyl)-N-(1H-pyrazol-3-yl)-7-(1,3,5-trimethyl-1H-pyrazol-4-yl)-1H-indole-2-carboxamide], the Ki lay in the range of 501 to 999 nM.

Take `Cc1cc(OCCCc2c(C(=O)N[C@H]3CCC[C@H]3C(=O)O)[nH]c3c(-c4c(C)nn(C)c4C)cccc23)cc(C)c1Cl` [I-314, (1R,2S)-2-(3-(3-(4-chloro-3,5-dimethylphenoxy)propyl)-7-(1,3,5-trimethyl-1H-pyrazol-4-yl)-1H-indole-2-carboxamido)cyclopentane-1-carboxylic acid]: the Ki was 51 to 100 nM.

As for `Cc1cc(OCCCc2c(C(=O)N[C@H]3CCCC[C@H]3C(=O)O)[nH]c3c(-c4c(C)nn(C)c4C)cccc23)cc(C)c1Cl` [I-316, (1R,2S)-2-(3-(3-(4-chloro-3,5-dimethylphenoxy)propyl)-7-(1,3,5-trimethyl-1H-pyrazol-4-yl)-1H-indole-2-carboxamido)cyclohexane-1-carboxylic acid], the Ki is below 50 nM. To `Cc1cc(OCCCc2c(C(=O)NC3CCN(C(=O)CC(=O)O)CC3)[nH]c3c(-c4c(C)nn(C)c4C)cccc23)cc(C)c1Cl` [I-318, 3-(4-(3-(3-(4-chloro-3,5-dimethylphenoxy)propyl)-7-(1,3,5-trimethyl-1H-pyrazol-4-yl)-1H-indole-2-carboxamido)piperidin-1-yl)-3-oxopropanoic acid] belongs below 50 nM; to `Cc1cc(OCCCc2c(C(=O)NC3CCN(C(=O)C(=O)O)CC3)[nH]c3c(-c4c(C)nn(C)c4C)cccc23)cc(C)c1Cl` [I-319, 2-(4-(3-(3-(4-chloro-3,5-dimethylphenoxy)propyl)-7-(1,3,5-trimethyl-1H-pyrazol-4-yl)-1H-indole-2-carboxamido)piperidin-1-yl)-2-oxoacetic acid], below 50 nM; to `Cc1cc(OCCCc2c(C(=O)NC3CCN(C(=O)C(=O)O)CC3)[nH]c3c(-c4c(C)nn(C)c4C)c(Cl)ccc23)cc(C)c1Cl` [I-321, 2-(4-(6-chloro-3-(3-(4-chloro-3,5-dimethylphenoxy)propyl)-7-(1,3,5-trimethyl-1H-pyrazol-4-yl)-1H-indole-2-carboxamido)piperidin-1-yl)-2-oxoacetic acid], below 50 nM. To `Cc1cc(OCCCc2c(C(=O)N[C@@H]3CCC[C@@H](C(=O)O)C3)[nH]c3c(-c4c(C)nn(C)c4C)c(Cl)ccc23)cc(C)c1Cl` [I-322, (1R,3R)-3-(6-chloro-3-(3-(4-chloro-3,5-dimethylphenoxy)propyl)-7-(1,3,5-trimethyl-1H-pyrazol-4-yl)-1H-indole-2-carboxamido)cyclohexane-1-carboxylic acid] belongs below 50 nM. In the case of `Cc1cc(OCCCc2c(C(=O)N3CC(NC(=O)C(=O)O)C3)[nH]c3c(-c4c(C)nn(C)c4C)c(Cl)ccc23)cc(C)c1Cl` [I-323, 2-((1-(6-chloro-3-(3-(4-chloro-3,5-dimethylphenoxy)propyl)-7-(1,3,5-trimethyl-1H-pyrazol-4-yl)-1H-indole-2-carbonyl)azetidin-3-yl)amino)-2-oxoacetic acid] it was below 50 nM; in that of `Cc1cc(OCCCc2c(C(=O)NC[C@H]3CC[C@H](C(=O)O)CC3)[nH]c3c(-c4c(C)nn(C)c4C)c(Cl)ccc23)cc(C)c1Cl` [I-324, (1r,4r)-4-((6-chloro-3-(3-(4-chloro-3,5-dimethylphenoxy)propyl)-7-(1,3,5-trimethyl-1H-pyrazol-4-yl)-1H-indole-2-carboxamido)methyl)cyclohexane-1-carboxylic acid], below 50 nM; in that of `Cc1cc(OCCCc2c(C(=O)N[C@H]3CCN(C(=O)C(=O)O)C3)[nH]c3c(-c4c(C)nn(C)c4C)c(Cl)ccc23)cc(C)c1Cl` [I-325, (S)-2-(3-(6-chloro-3-(3-(4-chloro-3,5-dimethylphenoxy)propyl)-7-(1,3,5-trimethyl-1H-pyrazol-4-yl)-1H-indole-2-carboxamido)pyrrolidin-1-yl)-2-oxoacetic acid], below 50 nM. Take `Cc1cc(OCCCc2c(C(=O)N[C@@H]3CCN(C(=O)C(=O)O)C3)[nH]c3c(-c4c(C)nn(C)c4C)c(Cl)ccc23)cc(C)c1Cl` [I-326, (R)-2-(3-(6-chloro-3-(3-(4-chloro-3,5-dimethylphenoxy)propyl)-7-(1,3,5-trimethyl-1H-pyrazol-4-yl)-1H-indole-2-carboxamido)pyrrolidin-1-yl)-2-oxoacetic acid]: the Ki was below 50 nM.

Regarding `Cc1cc(OCCCc2c(C(=O)N[C@@H]3CCCN(C(=O)C(=O)O)C3)[nH]c3c(-c4c(C)nn(C)c4C)c(Cl)ccc23)cc(C)c1Cl` [I-327, (R)-2-(3-(6-chloro-3-(3-(4-chloro-3,5-dimethylphenoxy)propyl)-7-(1,3,5-trimethyl-1H-pyrazol-4-yl)-1H-indole-2-carboxamido)piperidin-1-yl)-2-oxoacetic acid], the Ki is below 50 nM.

For `Cc1cc(OCCCc2c3n(c4c(-c5c(C)nn(C)c5C)c(Cl)ccc24)CCCN(Cc2cc(NCCC(C)C)cc(C(=O)O)c2)C3=O)cc(C)c1Cl` [I-328, 3-((8-chloro-11-(3-(4-chloro-3,5-dimethylphenoxy)propyl)-1-oxo-7-(1,3,5-trimethyl-1H-pyrazol-4-yl)-4,5-dihydro-1H-[1,4]diazepino[1,2-a]indol-2(3H)-yl)methyl)-5-(isopentylamino)benzoic acid], the inhibitory constant (Ki) is below 50 nM. To `Cc1cc(OCCCc2c3n(c4c(-c5c(C)nn(C)c5C)c(Cl)ccc24)CCCN(Cc2cc(C(=O)O)cc(N(C(=O)CC(C)C)C(=O)CC(C)C)c2)C3=O)cc(C)c1Cl` [I-329, 3-((8-chloro-11-(3-(4-chloro-3,5-dimethylphenoxy)propyl)-1-oxo-7-(1,3,5-trimethyl-1H-pyrazol-4-yl)-4,5-dihydro-1H-[1,4]diazepino[1,2-a]indol-2(3H)-yl)methyl)-5-(3-methyl-N-(3-methylbutanoyl)butanamido)benzoic acid] belongs below 50 nM; to `Cc1cc(OCCCc2c(C(=O)N[C@H]3CC[C@@H](C(=O)O)C3)[nH]c3c(-c4c(C)nn(C)c4C)c(Cl)ccc23)cc(C)c1Cl` [I-330, (1R,3S)-3-(6-chloro-3-(3-(4-chloro-3,5-dimethylphenoxy)propyl)-7-(1,3,5-trimethyl-1H-pyrazol-4-yl)-1H-indole-2-carboxamido)cyclopentane-1-carboxylic acid], below 50 nM. In the case of `Cc1cc(OCCCc2c(C(=O)N[C@H]3CCC[C@@H](C(=O)O)C3)[nH]c3c(-c4c(C)nn(C)c4C)c(Cl)ccc23)cc(C)c1Cl` [I-331, (1R,3S)-3-(6-chloro-3-(3-(4-chloro-3,5-dimethylphenoxy)propyl)-7-(1,3,5-trimethyl-1H-pyrazol-4-yl)-1H-indole-2-carboxamido)cyclohexane-1-carboxylic acid] it was below 50 nM. In the case of `Cc1cc(OCCCc2c(C(=O)N[C@H]3CC[C@@H](C(=O)O)CC3)[nH]c3c(-c4c(C)nn(C)c4C)c(Cl)ccc23)cc(C)c1Cl` [I-332, (1s,4s)-4-(6-chloro-3-(3-(4-chloro-3,5-dimethylphenoxy)propyl)-7-(1,3,5-trimethyl-1H-pyrazol-4-yl)-1H-indole-2-carboxamido)cyclohexane-1-carboxylic acid] it was below 50 nM; in that of `Cc1cc(OCCCc2c(C(=O)N[C@H]3CCCC[C@H]3C(=O)O)[nH]c3c(-c4c(C)nn(C)c4C)c(Cl)ccc23)cc(C)c1Cl` [I-333, (1R,2S)-2-(6-chloro-3-(3-(4-chloro-3,5-dimethylphenoxy)propyl)-7-(1,3,5-trimethyl-1H-pyrazol-4-yl)-1H-indole-2-carboxamido)cyclohexane-1-carboxylic acid], below 50 nM; in that of `Cc1cc(OCCCc2c(C(=O)N[C@H]3CCC[C@H]3C(=O)O)[nH]c3c(-c4c(C)nn(C)c4C)c(Cl)ccc23)cc(C)c1Cl` [I-334, (1R,2S)-2-(6-chloro-3-(3-(4-chloro-3,5-dimethylphenoxy)propyl)-7-(1,3,5-trimethyl-1H-pyrazol-4-yl)-1H-indole-2-carboxamido)cyclopentane-1-carboxylic acid], below 50 nM.

The values above are taken from patent publication US10533010B2, “Substituted indole Mcl-1 inhibitors” (Vanderbilt University, priority 2014, dated 2020).
